We go through nine compounds from patent US4647587A, “Method for treatment of antidiuresis employing serine derivatives” (Sumitomo Pharmaceuticals Company, Limited, priority 1984, dated 1987).

Where only a bound is given, the exact number is not on record here.

Data set [1] can be described thus: Acute toxicity by oral dosage to rat. As to conditions: in vivo.
Data set [2] is described as follows: Diuretic action (general statement). As to conditions: for diuretic action (in words): in vivo. Type of data set: in vivo.
A short description of data set [3]: Acute toxicity by oral dosage to mouse. The settings on record: in vivo.
For data set [4] the following is noted: clinical tests; U.S. Pat. No. 4,497,826; cited from earlier work.
The nature of data set [5]: Acute toxicity by oral dosage to dog. The settings on record: in vivo.
The conditions of data set [6]: clinical tests; U.S. Pat. No. 4,330,558; cited from earlier work.
The conditions of data set [7]: animals; U.S. Pat. No. 3,920,728; cited from earlier work.
The subject of data set [8] is aromatic L-amino acid decarboxylase. As to conditions: cited from earlier work; for NA isomer formed: in vivo.
The conditions of data set [9]: U.S. Pat. No. 4,529,603; cited from earlier work.
For data set [10] the following is noted: rats; Araki et al. 1981; cited from earlier work.
The conditions of data set [11]: rats; Araki et al. 1978; cited from earlier work.
A short description of data set [12]: Effect of L-threo-DOPS on urinary volume of mice (Experimental Example 2). Type of data set: in vivo. As to conditions: FIG. 2. The protocol:
(§1) The ordinate represents the urinary volume (ml/kg/3 hr) and the abscissa, the amount of dosage of L-threo-DOPS (mg/kg).
(§2) In FIG. 1 and FIG. 2, the mark * represents p<0.05 (compared with the control group).
Ten mice starved for 17 hours were arranged to form a group. Ten mg/kg, 30 mg/kg, and 100 mg/kg of L-threo-DOPS were suspended in a 0.5% aqueous solution of methyl cellulose, respectively, and orally administered together with […] of isotonic sodium chloride solution. To the control groups were dosed only 0.5% aqueous solution of methyl cellulose and isotonic sodium chloride solution.

The nature of data set [13]: Effect of periphery decarboxylase inhibitor (DCI) on diuretic action of L-threo-DOPS (Experimental Example 3). Type of data set: in vivo, rats. As to conditions: for effect on diuretic action of L-threo-DOPS when used together (in words): p.o. at the same time with L-threo-DOPS.
Procedure: Investigation was made on the effect of L-threo-DOPS on diuretic action when DCI, benserazide or carbidopa was dosed by oral administration at the same time, as in the same manner as Experimental Example 1.
Data set [14] is described as follows: Effect of L-threo-DOPS on electrolytes in urine of rats (Experimental Example 1). Type of data set: in vivo. As to conditions: for amount of Cl^- in urine / amount of K^+ in urine / amount of Na^+ in urine: 3 hours, average of 5 groups±S.E. The protocol:
(§3) Three rats starved for 17 hours were arranged to form a group. Ten mg/kg, 30 mg/kg, and 100 mg/kg of L-threo-DOPS were suspended in a 0.5% aqueous solution of methyl cellulose, respectively, and orally administered together with 25 ml/kg of isotonic sodium chloride solution. To the control groups were dosed only 0.5% aqueous solution of methyl cellulose and isotonic sodium chloride solution. The urinary volume was measured through 3 hours after the dosage. In addition, among electrolytes in the urine, amounts of sodium ion (Na^+) and potassium ion (K^+) were measured by a flame photometer, and an amount of chlorine ion (Cl^-) by the method of Zall et al. (Anal. Chem. 28, 1665).
In the table, values are represented in a unit of mEq/kg/3 hr and as the average of 5 groups±S.E.

Data set [15] is described as follows: Amount of NA in the kidney and heart of rats after the dosage of L-threo-DOPS (Experimental Example 4). Type of data set: in vivo. The protocol:
To the rats were dosed 30 mg/kg of L-threo-DOPS by oral adminstration, and the amount of NA in the kidney and heart after 1 hour was measured.
The method for the measurement was nearly in accordance with the method of Suzuki, et al. (Europ. J. Clin. Pharmacol., 23, 463, 1982).

The next data set has as its system harmaline induced tremor. The settings on record: Japanese Patent Publication 125630/1977; cited from earlier work.
A short description of data set [16]: Effect of L-threo-DOPS on urinary volume of rats (Experimental Example 1). The settings on record: rats, 10, 30, 100 mg/kg p.o., 3 hours, FIG. 1. Type of data set: in vivo. The protocol: as §1, §2, §3
Another data set deals with renal blood vessel. The settings on record: in vivo; cited from earlier work.
Setting [17] is: rats, 30 mg/kg p.o., after 1 hour, average of 5 rats±S.E.

For orientation: LD50 means the dose at which mortality reaches 50%. For `N[C@H](C(=O)O)[C@H](O)c1ccc(O)c(O)c1` (relative stereo) [DL-threo-DOPS], the LD50 in [1], in [3] and in data set [5] was ≥ 10000 mg/kg each time. Further, the “diuretic action (in words)” value in [2] was “significant diuretic action”. The “effect on freezing phenomena of Parkinson's disease” value in data set [4] is reported as “beneficial effects”. Besides, in data set [6], the “effect on orthostatic hypotension” value is “beneficial effects”.

As to `N[C@H](C(=O)O)[C@@H](O)c1ccc(O)c(O)c1` (relative stereo) [erythro-DOPS, reference compound], the “antihypertensive or antidepressive effect” value in data set [7] is “antihypertensive or antidepressive effect”.

`N[C@H](C(=O)O)[C@H](O)c1ccc(O)c(O)c1` (relative stereo) [threo-DOPS, threo-3-(3,4-dihydroxyphenyl)-serine]: the “antihypertensive or antidepressive effect” value in [7] was “antihypertensive or antidepressive effect”.

Turning to `N[C@H](C(=O)O)C(O)c1ccc(O)c(O)c1` (stereo partly drawn) [L-DOPS], the “conversion to noradrenaline in vivo” value in data set [8] (by aromatic L-amino acid decarboxylase) is recorded as “converted to noradrenaline”.

Consider `N[C@H](C(=O)O)[C@@H](O)c1ccc(O)c(O)c1` [L-erythro-DOPS], for which the “effect on psychmotor excitement” value in data set [9] is “suppressive effect”. For the same compound, the NA isomer formed entry in [8] is “unnatural type d-NA”.

Turning to `N[C@H](C(=O)O)[C@H](O)c1ccc(O)c(O)c1` [L-threo-DOPS], the LD50 in data set [1], in data set [3] and in [5] was ≥ 10000 mg/kg each time. Besides, in [10], the pressor effect result was “pressor effect”. Further, in data set [2] (easy manner such as oral administration), the “course of diuretic action (in words)” value is “uniformly and prolongably”. In addition, the “diuretic action (in words)” value in data set [2] is “significant diuretic action”. For the same compound, the positive chronotropic effect result in data set [11] is on record as “positive chronotropic effect”. For the same compound, the “urinary volume (in words)” value is listed as “increases the urinary volume in accordance with the amount of dosage” in [12] (mice, 10, 30, 100 mg/kg p.o.) and “Increase in the urinary volume was recognized in accordance with the amount of dosage” in data set [16]. Further, the “urinary volume, significance (in words)” value in data set [12] (mice, group dosed 100 mg/kg p.o.) was “significant”. In [13] (L-threo-DOPS 30 mg/kg p.o. alone, average of 5 groups±S.E.), the Urinary volume came out at 51.9 ± 3.0 ml/kg/3 hr. Also, the “amount of Cl^- in urine” value is 1.89 ± 0.14 mEq/kg/3 hr in data set [14] (10 mg/kg p.o.), 2.97 ± 0.25 mEq/kg/3 hr in data set [14] (30 mg/kg p.o.) and 3.24 ± 0.07 mEq/kg/3 hr in [14] (100 mg/kg p.o.). Moreover, the “amount of K^+ in urine” value in data set [14] (10 mg/kg p.o.) is on record as 0.32 ± 0.03 mEq/kg/3 hr; in data set [14] (30 mg/kg p.o.), 0.37 ± 0.05 mEq/kg/3 hr; in data set [14] (100 mg/kg p.o.), 0.45 ± 0.03 mEq/kg/3 hr. Further, the “amount of Na^+ in urine” value in [14] (10 mg/kg p.o.) was 1.58 ± 0.12 mEq/kg/3 hr; in data set [14] (30 mg/kg p.o.), 2.45 ± 0.32 mEq/kg/3 hr; in [14] (100 mg/kg p.o.), 3.15 ± 0.07 mEq/kg/3 hr. For the same compound, the “amount of Na^+ in urine (in words)” value in data set [14] (groups dosed 10 mg/kg or more p.o.) is recorded as “significantly increases”. In addition, the “amount of Cl^- in urine (in words)” value in data set [14] (only in groups dosed 30 mg/kg or more p.o.) is “significantly increased”. Moreover, the “amount of K^+ in urine (in words)” value is listed as “significant increase” in [14] (only in the group dosed 100 mg/kg p.o.) and “not so much influenced” in data set [14] (p.o., doses in general). In addition, in data set [4], the “effect on freezing phenomena of Parkinson's disease” value was “beneficial effects”. Also, the “NA in the heart (in words)” value in data set [15] (30 mg/kg p.o.) is “no influence”. For the same compound, the “amount of NA in the kidney (in words)” value in [15] (30 mg/kg p.o.) is on record as “markedly increases”. The “NA concentration in the kidney compared with those in other organs (in words)” value in data set [15] (rat, in vivo) is “significantly increased”. The “amount of NA in the heart” value in data set [15] (setting [17]) was determined as 1.00 ± 0.06 ng/g wet weight. The “amount of NA in the kidney” value in data set [15] (setting [17]) is reported as 1.80 ± 0.35 ng/g wet weight. Moreover, the “effect on harmaline induced tremor” value in the data set on harmaline induced tremor is “inhibitory effect”. In data set [8], the NA isomer formed result is listed as “natural type l-NA”. The “effect on orthostatic hypotension” value in [6] is recorded as “beneficial effects”.

With `NC(CO)C(=O)NNCc1ccc(O)c(O)c1O` (stereo not drawn) [benserazide], in data set [13], the “effect on diuretic action of L-threo-DOPS when used together (in words)” value is given as “significantly decreased”.

As for `C[C@@](Cc1ccc(O)c(O)c1)(NN)C(=O)O` [carbidopa], in data set [13], the “effect on diuretic action of L-threo-DOPS when used together (in words)” value is recorded as “significantly decreased”.

In the case of `NC[C@H](O)c1ccc(O)c(O)c1` [l-NA], in the data set on renal blood vessel, the “action on the renal blood vessel” value is listed as “contractive action” and the “effect on renal blood flow” value is on record as “decrease in the renal blood flow”.
